The results in this text go back to the supplement of paper PMC10307832.

What all share (assay): relative viability (nuclei count vs DMSO), 5 days (fraction); higher = more cells survive
Compound in the assay “AZD5582 + OSI-027”: C[C@@H](C(=O)N[C@@H](C1CCCCC1)C(=O)N2CCC[C@H]2C(=O)N[C@@H]3[C@@H](CC4=CC=CC=C34)OCC#CC#CCO[C@@H]5CC6=CC=CC=C6[C@@H]5NC(=O)[C@@H]7CCCN7C(=O)[C@H](C8CCCCC8)NC(=O)[C@H](C)NC)NC [AZD5582] + COc1cccc2cc(-c3nc([C@H]4CC[C@H](C(=O)O)CC4)n4ncnc(N)c34)[nH]c12 [OSI-027] (partner 0.5 µM)
The method, boiled down:
(§1)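 Relative viability was taken as the ratio of nuclei in treated wells to nuclei in vehicle wells. Lung cancer cell lines in 1536-well plates received compounds by pin tool one day after seeding, either one drug alone or a fixed anchor-drug dose plus five library-drug doses (not always all listed) in √10 steps. Nuclei were counted on 4× images after 5 days of treatment, and values are medians of duplicate plates.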

Compound in the assay “AZD5582 + Tozasertib”: C[C@@H](C(=O)N[C@@H](C1CCCCC1)C(=O)N2CCC[C@H]2C(=O)N[C@@H]3[C@@H](CC4=CC=CC=C34)OCC#CC#CCO[C@@H]5CC6=CC=CC=C6[C@@H]5NC(=O)[C@@H]7CCCN7C(=O)[C@H](C8CCCCC8)NC(=O)[C@H](C)NC)NC [AZD5582] + Cc1cc(Nc2cc(N3CCN(C)CC3)nc(Sc3ccc(NC(=O)C4CC4)cc3)n2)n[nH]1 [Tozasertib] (partner 0.1 µM)
The method in brief: as §1

Compound in the assay “AZD5582 + AZD7762”: C[C@@H](C(=O)N[C@@H](C1CCCCC1)C(=O)N2CCC[C@H]2C(=O)N[C@@H]3[C@@H](CC4=CC=CC=C34)OCC#CC#CCO[C@@H]5CC6=CC=CC=C6[C@@H]5NC(=O)[C@@H]7CCCN7C(=O)[C@H](C8CCCCC8)NC(=O)[C@H](C)NC)NC [AZD5582] + NC(=O)Nc1cc(-c2cccc(F)c2)sc1C(=O)N[C@H]1CCCNC1 [AZD7762] (partner 0.2 µM)
The method in brief: as §1

Compound in the assay “Temozolomide + Alpelisib”: Cn1nnc2c(C(N)=O)ncn2c1=O [Temozolomide] + Cc1nc(NC(=O)N2CCC[C@H]2C(N)=O)sc1-c1ccnc(C(C)(C)C(F)(F)F)c1 [Alpelisib] (partner 2 µM)
The method in brief:
as §1

On to NCI-H650, for which the relative viability stood at 0.431 with AZD5582 + OSI-027 (first compound 0.001581 µM); 0.509 in the assay with AZD5582 + OSI-027 (first compound 0.005 µM); 0.364 with AZD5582 + OSI-027 (first compound 0.01581 µM); 0.32 with AZD5582 + OSI-027 (first compound 0.05 µM); 0.648 in the assay with AZD5582 + Tozasertib (first compound 0.001581 µM); 0.876 with AZD5582 + Tozasertib (first compound 0.005 µM). Also, the relative viability with AZD5582 + Tozasertib (first compound 0.01581 µM) is 0.722; in the assay with AZD5582 + Tozasertib (first compound 0.05 µM), 0.628; with AZD5582 + AZD7762 (first compound 0.001581 µM), 1.05; in the assay with AZD5582 + AZD7762 (first compound 0.005 µM) it was 1.07; with AZD5582 + AZD7762 (first compound 0.01581 µM), 0.643; with AZD5582 + AZD7762 (first compound 0.05 µM) it was 0.788. Moreover, the relative viability in the assay with Temozolomide + Alpelisib (first compound 0.2 µM) is 1.18; with Temozolomide + Alpelisib (first compound 0.6325 µM), 1.19; with Temozolomide + Alpelisib (first compound 2 µM), 1.13; with Temozolomide + Alpelisib (first compound 6.325 µM), 1.12; with Temozolomide + Alpelisib (first compound 20 µM), 1.06.
Consider NCI-H2085, for which the relative viability was determined as 0.499 with AZD5582 + OSI-027 (first compound 0.001581 µM); 0.902 with AZD5582 + OSI-027 (first compound 0.005 µM); 0.578 with AZD5582 + OSI-027 (first compound 0.01581 µM); 0.367 with AZD5582 + OSI-027 (first compound 0.05 µM); 0.716 in the assay with AZD5582 + Tozasertib (first compound 0.001581 µM); 0.708 with AZD5582 + Tozasertib (first compound 0.005 µM). Further, the relative viability turned out to be 0.798 with AZD5582 + Tozasertib (first compound 0.01581 µM); 0.606 in the assay with AZD5582 + Tozasertib (first compound 0.05 µM); 0.987 with AZD5582 + AZD7762 (first compound 0.001581 µM); 1.02 with AZD5582 + AZD7762 (first compound 0.005 µM); 0.855 with AZD5582 + AZD7762 (first compound 0.01581 µM); 0.948 in the assay with AZD5582 + AZD7762 (first compound 0.05 µM). Moreover, the relative viability in the assay with Temozolomide + Alpelisib (first compound 0.2 µM) amounted to 1.01; with Temozolomide + Alpelisib (first compound 0.6325 µM), 0.927; with Temozolomide + Alpelisib (first compound 2 µM), 0.994; in the assay with Temozolomide + Alpelisib (first compound 6.325 µM) it was 1.1; in the assay with Temozolomide + Alpelisib (first compound 20 µM), 0.953.
As for RERF-LC-KJ, the relative viability with AZD5582 + OSI-027 (first compound 0.01581 µM) worked out at 0.508; with AZD5582 + OSI-027 (first compound 0.05 µM), 0.289; in the assay with AZD5582 + Tozasertib (first compound 0.01581 µM), 0.431; with AZD5582 + Tozasertib (first compound 0.05 µM), 0.259; with AZD5582 + AZD7762 (first compound 0.001581 µM), 0.2; with AZD5582 + AZD7762 (first compound 0.005 µM), 0.414. Also, the relative viability with AZD5582 + AZD7762 (first compound 0.01581 µM) amounted to 0.855; with AZD5582 + AZD7762 (first compound 0.05 µM), 0.491; with Temozolomide + Alpelisib (first compound 0.2 µM), 0.638; with Temozolomide + Alpelisib (first compound 0.6325 µM), 0.88; in the assay with Temozolomide + Alpelisib (first compound 2 µM), 0.923; with Temozolomide + Alpelisib (first compound 6.325 µM), 0.861. Besides, the relative viability with Temozolomide + Alpelisib (first compound 20 µM) turned out to be 0.743.
For the cell line NCI-H727, the relative viability in the assay with AZD5582 + OSI-027 (first compound 0.001581 µM) came out at 0.51; in the assay with AZD5582 + OSI-027 (first compound 0.005 µM) it was 0.473; with AZD5582 + OSI-027 (first compound 0.01581 µM) it was 0.508; with AZD5582 + OSI-027 (first compound 0.05 µM), 0.529; with AZD5582 + Tozasertib (first compound 0.001581 µM) it was 0.651; in the assay with AZD5582 + Tozasertib (first compound 0.005 µM), 0.732. In addition, the relative viability in the assay with AZD5582 + Tozasertib (first compound 0.01581 µM) is 0.58; in the assay with AZD5582 + Tozasertib (first compound 0.05 µM), 0.78; with AZD5582 + AZD7762 (first compound 0.001581 µM), 0.538; in the assay with AZD5582 + AZD7762 (first compound 0.005 µM), 0.744; with AZD5582 + AZD7762 (first compound 0.01581 µM) it was 0.651; in the assay with AZD5582 + AZD7762 (first compound 0.05 µM) it was 0.833. Further, the relative viability in the assay with Temozolomide + Alpelisib (first compound 0.2 µM) was found to be 0.655; with Temozolomide + Alpelisib (first compound 0.6325 µM), 0.511; in the assay with Temozolomide + Alpelisib (first compound 2 µM), 0.533; with Temozolomide + Alpelisib (first compound 6.325 µM) it was 0.675; in the assay with Temozolomide + Alpelisib (first compound 20 µM), 0.504.
